Our source for the IC50 values is patent US20110201628A1, “HETEROCYCLIC JAK KINASE INHIBITORS” (priority 2008, published 2011).

In experiment [1] the target is T1, N-terminal GST-tagged, recombinant, human JAK2 (amino acids 831-1132) (Homo sapiens, UniProt O60674).
T1 construct: human JAK2 (amino acids 831-1132, PLAZA database pAZB0359); GST (N); host or cells: insect cells
Nature of the experiment: JAK2 mobility shift assay on Caliper LC3000 (Method 2). The experiment is classed as biochemical. As to conditions: 0.3 nM JAK2 enzyme, 5 mM ATP, 1.5 μM SRCtide, 90 minutes room temperature. On the procedure: Janus kinase 2 (JAK2) activity was also determined by measuring the kinase's ability to phosphorylate a tyrosine residue within a peptide substrate using a mobility shift assay on a Caliper LC3000 reader (Caliper, Hopkinton, Mass.), which measures fluorescence of the phosphorylated and unphosphorylated substrate and calculates a ratiometric value to determine percent turnover.
To measure JAK2 kinase activity, an in-house purified enzyme was used. […] After incubation of the kinase with a FAM labeled SRCtide substrate, adenosine triphosphate (ATP), and MgCl2 for 90 minutes at room temperature, the kinase reaction was stopped by the addition of 36 mM ethylenediaminetetraacetic acid (EDTA). The reaction was performed in 384 well microtitre plates and the reaction products were detected using the Caliper LC3000 Reader.

Experiment [2] has as its target T2, C-terminal His6-tagged human JAK2 kinase (Homo sapiens, UniProt O60674).
T2 construct: His6 (C); purchased Upstate Biotechnology, MA 14-640; host or cells: baculovirus in Sf21 cells
The experiment can be described thus: JAK2 Amplified Luminescent Proximity Homogeneous Assay (ALPHA) (Method 3). The format is biochemical. As to conditions: biotinylated Tyk substrate, 20 minutes preincubation, 90 minutes at 25° C. On the procedure: Activity of purified C-terminal His6-tagged human JAK2 kinase was determined in-vitro using an Amplified Luminescent Proximity Homogeneous Assay (ALPHA) (Perkin Elmer, MA), which measures phosphorylation of a biotinylated Tyk ([…]) substrate (Cell Signaling Technology, MA, Cat #2200B). Commercially available JAK2 (amino acids 808-end, Genbank Accession number NM 004972, Upstate Biotechnology, MA, Catalog 14-640) was expressed by baculovirus in Sf21 cells and affinity purified by Ni^+2/NTA agarose.
The phosphorylation of Tyk substrate in the presence and absence of the compound of interest was determined. Briefly, 5 μl of Enzyme/Substrate/adenosine triphosphate (ATP) mix consisting of 1.44 nM JAK2, 192 nM Tyk, and 12 mM ATP in 1.2× buffer was preincubated with 2 μl of compound for 20 minutes at 25° C. […] Phosphorylated substrate was detected by an EnVision plate reader (Perkin Elmer, MA) 680 nm excitation, 520-620 nm emission. Data was graphed and IC50s calculated using Excel Fit (Microsoft).

T1 sequence (O60674 831-1132): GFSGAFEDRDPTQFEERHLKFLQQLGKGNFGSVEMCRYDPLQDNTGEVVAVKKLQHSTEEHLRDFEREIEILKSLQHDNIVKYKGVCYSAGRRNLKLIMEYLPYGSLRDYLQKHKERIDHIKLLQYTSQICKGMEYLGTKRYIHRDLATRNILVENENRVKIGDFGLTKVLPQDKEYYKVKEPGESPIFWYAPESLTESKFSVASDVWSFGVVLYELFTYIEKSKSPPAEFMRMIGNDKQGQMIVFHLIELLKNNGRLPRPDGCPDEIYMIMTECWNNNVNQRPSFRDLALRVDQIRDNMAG
T2 sequence (O60674 808-1132 limits assumed): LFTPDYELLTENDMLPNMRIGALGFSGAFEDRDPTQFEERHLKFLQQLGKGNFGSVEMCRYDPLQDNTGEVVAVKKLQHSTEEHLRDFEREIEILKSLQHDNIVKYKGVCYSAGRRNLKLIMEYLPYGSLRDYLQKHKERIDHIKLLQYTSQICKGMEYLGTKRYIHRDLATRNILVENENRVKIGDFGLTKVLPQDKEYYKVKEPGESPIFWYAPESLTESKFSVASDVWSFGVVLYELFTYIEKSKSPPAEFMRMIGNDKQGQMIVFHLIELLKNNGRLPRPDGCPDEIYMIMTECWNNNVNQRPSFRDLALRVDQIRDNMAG

As a reminder, the IC50 is the point on the concentration scale where inhibition reaches its midpoint. With `CC(Nc1nc(Nc2cn(C)cn2)c2cc(F)cnc2n1)c1ncc(F)cc1F` (single isomer, unassigned) [Example 31(b), N^2-[1-(3,5-Difluoropyridin-2-yl)ethyl]-6-fluoro-N^4-(1-methyl-1H-imidazol-4-yl)pyrido[2,3-d]pyrimidine-2,4-diamine], the IC50 in experiment [1] is 15000 nM. On the same count and under the same terms, the figure for `CC(Nc1nc(Nc2cn(C)cn2)c2ccn(CCF)c2n1)c1ncc(F)cn1` (single isomer, unassigned) [Example 22(b), 7-(2-Fluoroethyl)-N^2-[1-(5-fluoropyrimidin-2-yl)ethyl]-N^4-(1-methyl-1H-imidazol-4-yl)-7H-pyrrolo[2,3-d]pyrimidine-2,4-diamine] is 7 nM; for `CC(Nc1nc(Nc2cn(C)cn2)c2cc[nH]c2n1)c1ncc(F)cc1F` (single isomer, unassigned) [Example 25(b), N^2-[1-(3,5-Difluoropyridin-2-yl)ethyl]-N^4-(1-methyl-1H-imidazol-4-yl)-7H-pyrrolo[2,3-d]pyrimidine-2,4-diamine] it is 10 nM. The compound `CC(Nc1nc(Nc2cn(C)cn2)c2cc[nH]c2n1)c1ncc(F)cc1F` (single isomer, unassigned) [Example 25(a), N^2-[1-(3,5-Difluoropyridin-2-yl)ethyl]-N^4-(1-methyl-1H-imidazol-4-yl)-7H-pyrrolo[2,3-d]pyrimidine-2,4-diamine] had an IC50 in experiment [2] of 2900 nM. `COc1cnc(C(C)Nc2nc(Nc3cn(C)cn3)c3cc[nH]c3n2)nc1` (stereo not shown) [Example 27(b), N^2-[1-(5-Methoxypyrimidin-2-yl)ethyl]-N^4-(1-methyl-1H-imidazol-4-yl)-7H-pyrrole[2,3-d]pyrimidine-2,4-diamine]: in experiment [1], the IC50 is 520 nM. Regarding `C[C@H](Nc1nc(Nc2cn(C)cn2)c2ccc(O)nc2n1)c1ncc(F)cn1` [Example 34, 2-{[(1S)-1-(5-Fluoropyrimidin-2-yl)ethyl]amino}-4-[(1-methyl-1H-imidazol-4-yl)amino]pyrido[2,3-d]pyrimidin-7-ol], in experiment [1], the IC50 was determined as 47 nM. In experiment [2], `CCn1ncc2c(Nc3cn(C)cn3)nc(NC(C)c3ncc(F)cn3)nc21` (single isomer, unassigned) [Example 9(a), 1-Ethyl-N^6-[1-(5-fluoropyrimidin-2-yl)ethyl]-N^4-(1-methyl-1H-imidazol-4-yl)-1H-pyrazolo[3,4-d]pyrimidine-4,6-diamine] came in with an IC50 of 13700 nM.
